Assay: method code SF-AS, from DOI: 10.1002/1520-6017(200012)89:12<1525::aid-jps3>3.0.co;2-t
Settings: for logD: pH 7.4

SMILES	logP	logD
CCCCC(=O)NCCCCCN(O)C(=O)CCC(=O)NCCCCCN(O)C(=O)CCC(=O)NCCCCCN(O)C(C)=O	0.88	
CC(=O)N(O)CCCCCNC(=O)CCC(=O)N(O)CCCCCNC(=O)CCC(=O)N(O)CCCCCNC=O	-0.1	
CC(=O)N(O)CCCCCNC(=O)CCC(=O)N(O)CCCCCNC(=O)CCC(=O)N(O)CCCCCNC(=O)Cc1ccccc1	0.9	
CC(=O)N(O)CCCCCNC(=O)CCC(=O)N(O)CCCCCNC(=O)CCC(=O)N(O)CCCCCNC(=O)c1ccccc1	0.86	
CCC(=O)NCCCCCN(O)C(=O)CCC(=O)NCCCCCN(O)C(=O)CCC(=O)NCCCCCN(O)C(C)=O	0.26	
CCCCCCCC(=O)NCCCCCN(O)C(=O)CCC(=O)NCCCCCN(O)C(=O)CCC(=O)NCCCCCN(O)C(C)=O		1.09
CC(=O)N(O)CCCCCNC(=O)CCC(=O)N(O)CCCCCNC(=O)CCC(=O)N(O)CCCCCNC(=O)CCC(=O)O	-0.5	
CCCC(=O)NCCCCCN(O)C(=O)CCC(=O)NCCCCCN(O)C(=O)CCC(=O)NCCCCCN(O)C(C)=O	0.42	
CC(=O)NCCCCCN(O)C(=O)CCC(=O)NCCCCCN(O)C(=O)CCC(=O)NCCCCCN(O)C(C)=O	0.1	
CCCCCC(=O)NCCCCCN(O)C(=O)CCC(=O)NCCCCCN(O)C(=O)CCC(=O)NCCCCCN(O)C(C)=O		1.1

From the SangsterLogP compilation
